Assay results taken from patent US20260139222A1, “SYSTEMS WITH BIO-ENGINEERED ADHESIVE SILOXANE SUBSTRATE OF TUNABLE STIFFNESS AND METHODS OF USE THEREOF” (NUTECH VENTURES, priority 2022, published 2026).
Entries after “also recorded” stand apart in the source; their conditions may differ.

How the values were obtained:
HMC3 microglia [1] = assay: Morphology of HMC3 microglia on BEASTS surfaces after NAC pretreatment; format: cell-based, human; conditions: 0.25 mM NAC pretreatment; after 11 days; all stiffnesses
Method: To investigate the protective effect of NAC on stiffness-activated microglia, microglial cells were pretreated with 0.25 and 2.5 mM NAC prior to seeding. After 11 days, the morphology was ramified across all treatments with 0.25 mM NAC (FIG. 17A). ROS production was then measured. […] Next, the genotypes of untreated microglia were compared with NAC-treated microglia and an attenuation was found in each transcript. […] Additionally the MI profile correspondingly attenuated and mechanosensors; however, the M2 marker PPARG increased. To investigate the influence of NAC on caspase-1 stiffness-driven inflammation, the activity of caspase-1 was measured. The activity was reduced in 2 and 8 kPa; however, 25 kPa had increased caspase-1 activity, corroborating the findings with the loss of the CX3CR1 transcript (FIGS. 17E and 17F). […] Together, these findings indicate that pre-treatment of NAC attenuates ROS-driven dysfunction in stiffness-activated microglia. […] BV2 mouse microglia and HMC3 human cells: All cells were grown in aseptic conditions following standard cell culture protocol and stored in an incubator set at 37° C. with 5% CO2. […] Microglia were grown for 11 days and then assessed using qRT-PCR, counting, and luminescent assays.

HMC3 microglia [2] = assay: Total intracellular ROS (H2DCFDA dye) in microglia on stiffness after NAC pretreatment; format: cell-based, human; conditions: NAC-pre-treated microglia; 11 days on stiffness (2, 8, 25 kPa)
Method: ROS Quantification and Imaging: 5-(and6)-Chloromethyl-2′,7′-dichlorodihydro-fluorescein diacetate (CM-H2DCFDA) is a fluorescent indicator activated by the presence of ROS. The intensity of CM-H2DCFDA was measured by calculating the corrected total cell fluorescence (CTCF) from The Open Lab Book Imaging protocols. Microglial cells were plated onto 12-well plates at a density of 75,000 cells/mL. Microglial cells were grown to confluency and then 10 μM DCF-DA (Invitrogen) was added to all wells, and cells were incubated for a further 30 minutes before analysis of ROS-activated DCF-DA fluorescence (FL-1/525 nm).
(§1) NAC administration in microglial cells: NAC was purchased (Sigma-Aldrich, St. Louis, MO, USA) and was used in treatment after seeding microglial cells for 3 hours with a 2×PBS wash, then replaced with microglia media every 72 hours. Concentrations of 0.25 and 2.5 mM were used 36. Microglia were grown for 11 days and then assessed using qRT-PCR, counting, and luminescent assays.

HMC3 microglia [3] = assay: qRT-PCR gene expression in microglia with and without NAC pretreatment; format: cell-based, human
Method: NAC administration in microglial cells: NAC was purchased (Sigma-Aldrich, St. Louis, MO, USA) and was used in treatment after seeding microglial cells for 3 hours with a 2×PBS wash, then replaced with microglia media every 72 hours. Concentrations of 0.25 and 2.5 mM were used 36. Microglia were grown for 11 days and then assessed using qRT-PCR, counting, and luminescent assays. Gene Expression by Quantitative RT-PCR (qRT-PCR): Total RNA expression was extracted from microglial cells using TRIzol reagent (Invitrogen, CA, USA) and RNA samples were quantified by Take3 Micro-Volume Plate reader (BioTek, VT, USA) by spectrophotometry at 260/280 nm. Purity was assessed by an absence of 320 nm. RNA samples were reverse transcribed using the M-MuLV RT reagent Kit (New England BioLabs, MA, USA). Relative mRNA levels were determined by real-time PCR using a SYBR® PowerUp master mix and a real-time PCR detection system (Mastercycler Realplex ep gradient, Eppendorf, Hamburg, Germany). Data were expressed in Ct values normalized to 18S and […] between control (2 kPa) and treated groups (8, 15, 25 kPa) was determined using the 2-ΔΔCt method. The telomerase-associated genes were probed using the TaqManTM Array Human Telomere Extension by Telomerase (Applied Biosystems #4414187) with multiple plates. Briefly, samples were loaded with SYBR® PowerUp master mix and a real-time PCR detection system (Mastercycler Realplex ep gradient, Eppendorf, Hamburg, Germany). Data were expressed in Ct values normalized to endogenous controls provided with the array and […] and older change between groups was determined using the 2-ΔΔCt method.

caspase-1 = molecular target: T1, caspase-1 (Homo sapiens, UniProt P29466); assay: Intracellular caspase-1 activity, bioluminescent assay of microglia; format: cell-based; conditions: NAC pretreatment
T1 construct: endogenous in cells; host or cells: microglial cells (HMC3 inferred)
T1 sequence (P29466 120-297 limits assumed): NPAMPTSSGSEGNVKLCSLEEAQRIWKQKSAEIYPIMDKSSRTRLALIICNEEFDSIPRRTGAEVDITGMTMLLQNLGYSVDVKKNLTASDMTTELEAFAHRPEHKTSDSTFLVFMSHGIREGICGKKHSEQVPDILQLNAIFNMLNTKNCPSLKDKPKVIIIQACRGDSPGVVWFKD
T1 sequence (P29466 317-404 limits assumed): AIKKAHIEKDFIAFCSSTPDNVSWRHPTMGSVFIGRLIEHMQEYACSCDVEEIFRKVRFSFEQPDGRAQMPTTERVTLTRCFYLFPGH
Method: (§2) Caspase-1 and Non-canonical Inflammasome Activity Assays: Detection of caspase-1 and non-canonical caspases using a luciferase assay was performed using Caspase-Glo™ Inflammasome Assay (Cat #G9951; Promega, Madison WI, USA) according to the manufacturer's instructions. Briefly, microglial cells were grown in 12-well plates on differing stiffness for 11 days and then plated with a selective caspase-1 substate, Z-WEHD, for catalytically active caspase-1 with or without a caspase-1 specific inhibitor, Ac-YVAD-CHO, to confirm specific activity in parallel samples. The Ac-YVAD-CHO has minimal effect on other cross-reacting caspases 3, 5, and 6, thereby, representing non-canonical inflammatory caspase activity. Total luminescence was measured using a Synergy™ 2 multi-mode microplate reader (BioTek, VT, USA).
as §1

caspases 3, 5, and 6 = assay: Non-canonical caspase activity (with Ac-YVAD-CHO) in microglia; format: cell-based, human; conditions: NAC pre-treatment
Method: as §2, with “USA). NAC administration in microglial cells: NAC was purchased (Sigma-Aldrich, St. Louis, MO, USA) and was used in treatment after seeding microglial cells for 3 hours with a 2×PBS wash, then replaced with microglia media every 72 hours. Concentrations of 0.25 and 2.5 mM were used 36. Microglia were grown for 11 days and then assessed using qRT-PCR, counting, and luminescent assays.” for “USA).”

HMC3 microglia [4] = assay: Microglial proliferation and growth on stiffness after NAC pretreatment; format: cell-based, human
Method: Cell Count and Growth Analysis: Microglia were seeded in triplicate (7.5×10^5 cells/well) in a 12-well plate and the growth of cells was counted every other day, after which the stiffer matrices reached 100% confluency. At 48 h intervals, cells were trypsinized and counted using trypan blue exclusion tests. The doubling time of each stiffness was calculated with the following formula: […], where C_start is the number of cells at the beginning (day 0), C_end is the number of cells after a period of time t and T is the doubling time. NAC administration in microglial cells: NAC was purchased (Sigma-Aldrich, St. Louis, MO, USA) and was used in treatment after seeding microglial cells for 3 hours with a 2×PBS wash, then replaced with microglia media every 72 hours. Concentrations of 0.25 and 2.5 mM were used 36. Microglia were grown for 11 days and then assessed using qRT-PCR, counting, and luminescent assays.

[5] = system: Nrf2-related genes in HTR8 cells; conditions: sulforaphane treatment
Method: Sulforaphane (SFN) is a naturally occurring compound present in cruciferous vegetables like broccoli, watercress, Brussels sprouts, cabbage, and cauliflower. […] As a potent Nrf2 activator, SFN affects the expression of approximately 200 genes, including those involved in antioxidant and anti-inflammatory processes. To explore the impact of sulforaphane treatment on the expression levels of Nrf2-related genes, HTR8 cells were cultured on 8 kPa, 25 kPa, and 55 kPa BEASTS surfaces and the gene expression was analyzed by RT-PCR.
Gene Expression analysis of the HTR8 cells: Cells were cultured on BEASTS substrates of different stiffness levels (8 kPa, 25 kPa, and 55 kPa) for four days. After the culture, the total RNA was isolated from the HTR8 cells using Trizol following the manufacturer's instructions. RNA was extracted from the aqueous phase of the cell lysates by adding chloroform, followed by
RNA precipitation using isopropyl alcohol and rinsed with 75% ethanol. The RNA pellet was quantified and quality-checked using a spectrophotometer and then reverse-transcribed using the iScript™ cDNA synthesis kit. Subsequently, the relative expression levels of the target genes were analyzed using quantitative real-time PCR with SYBR Green Master Mix, and GAPDH was used as the housekeeping gene. The […] was employed for data analysis.

[6] = HTR8 cells, all three stiffness levels (8, 25, 55 kPa)

Row | Compound | microglial morphology (HMC3 microglia [1]) | ROS production (HMC3 microglia [2]) | transcripts of NAC-treated versus untreated microglia (HMC3 microglia [3]; 0.25 mM NAC pretreatment, RT-qPCR, 2, 8, 25 kPa) | inflammatory phenotype of microglia (HMC3 microglia [3]; NAC pretreatment, HMC3 cell line on stiffness) | PTGS2 expression (HMC3 microglia [3]; NAC pretreatment, qRT-PCR) | YAP1 expression (HMC3 microglia [3]; NAC pretreatment, qRT-PCR) | M1 inflammatory profile (printed MI profile) (HMC3 microglia [3]; NAC-treated microglia) | PPARG (M2 marker) expression (HMC3 microglia [3]; NAC-treated microglia) | CX3CR1 (steady-state marker) expression (HMC3 microglia [3]; NAC-treated microglia, 25 kPa) | caspase-1 activity (caspase-1; 2 and 8 kPa) | caspase-1 activity (caspase-1; 25 kPa) | activity of non-canonical caspases (caspases 3, 5, and 6; 2 and 8 kPa) | activity of non-canonical caspases (caspases 3, 5, and 6; elevated activity at 25 kPa) | stiffness-induced microglial proliferation / growth (HMC3 microglia [4]) | expression levels of Nrf2-related genes ([5]; HTR8 cells on 8 kPa, 25 kPa, and 55 kPa BEASTS surfaces, RT-PCR) | GCLM gene expression ([5]; HTR8 cells, 8 kPa and 55 kPa) | HMOX1 gene expression ([5]; HTR8 cells, 55 kPa) | GSR gene expression [5, 6] | NQO1 gene expression [5, 6]
1 | CC(=O)N[C@@H](CS)C(=O)O [NAC, N-Acetyl-l-Cysteine] | ramified | mitigates; also recorded: significantly reduced; also recorded: ameliorates | attenuation | ameliorates | decrease | decrease | attenuated | increased | decreased substantially | reduced | increased | reduced | attenuated | mitigates; also recorded: slows | – | – | – | – | –
2 | C[S+]([O-])CCCCN=C=S (stereo not shown) [sulforaphane, Sulforaphane] | – | – | – | – | – | – | – | – | – | – | – | – | – | – | increase | markedly upregulated | markedly upregulated | significantly upregulated | significantly upregulated
